Source: patent US10517919B2, “Selective Nox-1 inhibitor peptides and uses thereof” (UNIVERSITE DE BORDEAUX, priority 2013, dated 2019)

Assays:
[1] = test system: primary human keratinocytes; assay: ROS level with CM-H2DCF-DA probes in keratinocytes; assay type: cell-based; details: 10 or 50 μM, 24 h
Description: (§1) FIGS. 2A and 2B: show the relative ROS level as measured in primary human keratinocytes and HT29 (human colon adenocarcinoma cell line) treated with 10 or 50 μM of peptide inhibitor for 24 h using the CM-H2DCF-DA probes. Cells were treated with 10 μM of the peptides A (SEQ ID NO: 41), B (SEQ ID NO: 42), and C (SEQ ID NO: 43), and the ROS level was measured 24 h post-treatment. ROS level was normalized to non-treated cells (NTC) (*P<0.05).
(§2) ROS level in primary human keratinocytes treated with 10 or 50 μM of peptides A, B, and C for 24 h were assayed using the CM-H2DCF-DA probes (FIG. 2A).

[2] = test system: human colon adenocarcinoma HT29 cell line; assay: ROS level in HT29 cells, in which Nox1 is the only active Nox; assay type: cell-based; details: 24 h post-treatment
Description: as §1, §2

[3] = test system: UVB-induced squamous cell carcinomas (SCC); assay: UVB-induced squamous cell carcinoma induction (photocarcinogenesis); assay type: in vivo, SKH-1 hairless mice; details: for tumors with a volume less than 5 mm^3: 3 mg/kg topical, week 29
Description: FIGS. 6A, 6B and 6C: show the photoprotective effects of peptide A on UVB-induced squamous cell carcinomas (SCC) induction using SKH-1 hairless mice. Mice were treated topically with 3 mg/kg of peptide A or control peptide, and irradiated with UVB 10 min later three times per week. The number (6A) and the size (6B) of tumors were assessed once a week during 29 weeks (6C). The tumor volume distribution was evaluated at week 29. Clearly there is a considerable reduction in numbers and size of UVB-induced tumors in SKH-1 mice administrated topically with peptide A.
To examine the photoprotective effects of peptide A, the effect of peptide A administration on UVB-induced squamous cell carcinomas (SCC) induction using SKH-1 hairless mice, a well-defined murine model for the study of photocarcinogenesis that develops skin tumors including benign papilloma and malignant SCC. The validity of this model is exemplified by the remarkable similarity between UVB-induced carcinogenesis in these mice and the UV carcinogenesis pathway in human skin. SKH-1 hairless mice have yield extremely valuable data on the dose, time-course and the action spectrum for skin tumorigenesis following chronic UV B irradiation. In this study, peptide A (3 mg/kg) was administrated three times per week and 10 minutes prior to each UV B exposure.

NADPH oxidase [4] = assay: NADPH oxidase activity in non-tumor bearing skin and UVB-induced tumors after 29 weeks; assay type: in vivo, SKH-1 mice; details: compared with vehicle treated mice, after 29 weeks of treatment
Description: Mice were sacrificed after 29 weeks of treatment. Non-tumor bearing skin and tumors were harvested from irradiated mice treated with peptide A or the vehicle. NADPH oxidase activity was measured as RLU/μg of proteins in non-tumor bearing skin and UVB-induced tumors. Relative inhibition of Nox activity in non-tumor bearing skin and tumors was evaluated following arbitrary setting the Nox activity in non-tumor bearing skin and tumors taken from vehicle treated-mice to 100%. Results were then expressed as the average percentage of vehicle-treated mice.
The activity of NADPH oxidase was reduced 70% in non-tumor bearing skin and 54% in tumors isolated from mice treated with peptide A compared with vehicle treated mice (FIG. 7).

NADPH oxidase [5] = assay: NADPH oxidase activity in shCtrl and shNox1-transduced keratinocytes; assay type: cell-based, human; details: peptide A-treated cells versus shNox1-transduced cells and shNox1-transduced cells treated with peptide A
Description: (§3) FIGS. 3A, 3B and 3C: show inhibition of endogenous Nox1 and Nox2 protein expression using lentivirus-mediated expression of shRNA against Nox1 and Nox2. Keratinocytes were transduced with different shRNA (shNox1, shNox2 and the control shCtrl). Transduction efficacy was checked by western blotting analysis. […] Transduction efficacy was checked by western blotting analysis. Relative ROS level (3B) and Nox activity (3C) were measured 24 h post-treatment with Nox1 inhibitor peptide A compared to control peptide C. ROS level was normalized to counterpart peptide C-treated cells. NADPH oxidase activity was measured by relative luminescence unit (RLU) per μg of proteins. *P<0.05. […] In FIG. 3C NADPH oxidase activity was measured in shCtrl and shNox1-transduced cells treated with or without Nox1 inhibitor peptide A.
(§4) To examine the specificity of these peptides, the expression of endogenous Nox1 and Nox2 protein was inhibited using lentivirus-mediated expression of shRNA against Nox1 and Nox2. […] Further, NADPH oxidase activity was measured in shCtrl and shNox1-transduced cells treated with or without peptide A (FIG. 3C).

Nox1 = molecular target: T1, Nox1 (Homo sapiens, UniProt Q86UR1); assay: ROS level in shCtrl, shNox1 or shNox2-transduced keratinocytes; assay type: cell-based; details: shNox1-transduced keratinocytes, 24 h post-treatment, compared to control peptide C
T1 construct: endogenous in cells; host or cells: keratinocytes transduced with lentiviral shCtrl, shNox1 or shNox2
T1 sequence (Q86UR1 1-476): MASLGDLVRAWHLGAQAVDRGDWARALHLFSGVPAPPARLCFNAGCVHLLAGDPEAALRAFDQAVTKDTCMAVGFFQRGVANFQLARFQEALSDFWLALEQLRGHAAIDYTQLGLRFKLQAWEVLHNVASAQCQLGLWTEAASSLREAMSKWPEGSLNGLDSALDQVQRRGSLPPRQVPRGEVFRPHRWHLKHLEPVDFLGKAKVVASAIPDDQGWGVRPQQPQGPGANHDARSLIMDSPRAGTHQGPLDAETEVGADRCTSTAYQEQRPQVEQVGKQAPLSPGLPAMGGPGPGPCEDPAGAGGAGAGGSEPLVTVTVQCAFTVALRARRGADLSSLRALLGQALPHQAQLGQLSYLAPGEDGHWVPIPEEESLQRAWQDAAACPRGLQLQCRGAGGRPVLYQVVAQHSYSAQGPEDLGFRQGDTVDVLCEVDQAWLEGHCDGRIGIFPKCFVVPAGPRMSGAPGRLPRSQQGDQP
Description: as §3, §4

[6] = molecular target: T2, Nox1 activity in mouse skin (Mus musculus, UniProt Q8CJ00); assay: NADPH oxidase activity in mouse skin after topical treatment; assay type: in vivo, SKH-1 mice; details: 3 and 12 mg/kg
T2 construct: from tissue; host or cells: skin biopsies of SKH-1 mice
T2 sequence (Q8CJ00 1-444): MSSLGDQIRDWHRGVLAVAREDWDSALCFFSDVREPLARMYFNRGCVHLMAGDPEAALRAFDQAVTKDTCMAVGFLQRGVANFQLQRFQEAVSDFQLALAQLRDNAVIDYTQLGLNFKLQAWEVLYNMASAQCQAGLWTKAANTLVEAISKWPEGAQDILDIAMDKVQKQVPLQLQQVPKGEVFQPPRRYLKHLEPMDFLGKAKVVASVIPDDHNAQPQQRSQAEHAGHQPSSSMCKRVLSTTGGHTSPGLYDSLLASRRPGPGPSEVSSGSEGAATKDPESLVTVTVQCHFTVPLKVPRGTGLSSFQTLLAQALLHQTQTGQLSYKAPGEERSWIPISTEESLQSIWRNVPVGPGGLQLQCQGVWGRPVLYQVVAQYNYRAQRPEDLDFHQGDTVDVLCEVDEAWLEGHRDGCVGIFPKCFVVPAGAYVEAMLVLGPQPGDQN
Description: (§5) FIGS. 5A and 5B: show effect of peptide A on Nox1 activity in mouse skin. SKH-1 mice were treated topically with different doses: 0.4, 3 and 12 mg/kg (3 mice per dose) of Nox1 inhibitor peptide A. Skin biopsies were harvested 2 h, 24 h, 48 h and 72 h post-treatment and the NADPH oxidase activity was measured (RLU/μg of proteins). Results was normalized to the non-treated (NT) mice and expressed as % of inhibition of Nox activity. (B) Mice were treated topically with 3 and 12 mg/kg of peptide A (2 mice per dose). 10 min after treatment, mice were exposed to UVB (150 mJ/cm^2). Skin biopsies were harvested 2 h, 24 h. At 46 h after first treatment, mice were treated again with the same concentration of peptide A and exposed to UVB 10 min later. Skin biopsies were then harvested at 2 h, 24 h (i.e. 48 and 72 h after first treatment, respectively). The NADPH oxidase activity was measured (RLU/μg of proteins) and was normalized to the non-treated (NT) and non-irradiated mice.
(§6) To examine the effect of peptide A on Nox1 activity in mouse skin, SKH-1 mice were treated topically with different doses of peptide A (FIG. 5A). […] The effect of peptide A on UVB irradiated mice was then tested (FIG. 5B).

XPC deficient mice = assay: Premature skin aging in XPC deficient mice (progerin, OXPHOS, proteomics); assay type: in vivo
Description: FIGS. 11A and 11B: show the effect of NOX1 inhibitor peptide A (InhNOX) on progerin expression in skin biopsies of young XPC^+/+ and XPC^−/− mice. One month old mice were treated topically with 3 mg/kg (6 mice per group) Nox1 inhibitor peptide A (InhNOX) or control peptide (vehicle) three times per week for three months. (A) Total protein extracts of skin biopsies were assessed for progerin by Western blot analysis. β-actin was used as a loading control. (B) The protein bands corresponding to progerin was quantified and normalized with β-actin. The average density±SD from six mice in each group is presented as the relative value to the density in young wild type mice.
FIGS. 12A and 12B: show the effects of Nox1 inhibitor peptide A (InhNOX) on protein expression of OXPHOS complexes in skin biopsies of young XPC^+/+ and XPC^−/− mice. One month old mice were treated topically with 3 mg/kg (6 mice per group) Nox1 inhibitor peptide A (InhNOX) or control peptide (vehicle) three times per week for three months. (A) Expression of OXPHOS complexes were assessed by western blot analysis. β-actin was used as a loading control. (B) The bands corresponding to different OXPHOS complexes were quantified and normalized with β-actin. The average density±SD from six mice in each group is presented as the relative value to the density in young wild type mice.
To assess the anti-aging effects of Nox1 inhibitor peptide A (SEQ ID NO: 41) the accelerated aging in XPC deficient mice was first evaluated. To this end, the expression of progerin, a truncated version of lamin A protein involved in progeria syndrome, has been evaluated in 4 months old (young) and 1.5 year old (old) proficient and deficient XPC mice (XPC^+/+ and XPC^−/−, respectively) (FIGS. 9A and 9B).
To investigate the role of NADPH oxidase activity on premature aging in XPC deficient mice, one month old XPC^+/+ and XPC^−/− mice have been treated with NOX1 inhibitor peptide or vehicle three times per week for three months. The progerin expression (FIG. 11), OXPHOS protein expression (FIG. 12) and metabolism profile in murine epidermal cells have been then evaluated. […] To have a general idea on the effects of NOX1 peptide inhibitor on the XPC knockdown-induced metabolism alteration, proteomic approach has been used.

[7] = test system: UVB-induced Nox activation; assay: UVB-induced Nox activation in skin of irradiated mice; assay type: in vivo, SKH-1 mice; details: topical 3 and 12 mg/kg, 10 min prior to irradiation (UVB 150 mJ/cm^2)
Description: as §5, §6

NADPH oxidase [8] = assay: NADPH oxidase activity in keratinocytes treated with peptide A variants; assay type: cell-based; details: 10 μM, 24 h post-treatment, normalized to scramble treated cells
Description: Keratinocytes were treated with 10 μM of the indicated peptides: scramble control peptide P1 (SEQ ID NO: 57), peptide A with tat sequence (SEQ ID NO: 41) or without the tat sequence (SEQ ID NO:20); shorter peptides P7 (SEQ ID NO: 2) and P8 (SEQ ID NO: 56) (FIG. 8A). The NADPH oxidase activity was measured 24 h post-treatment (RLU/μg of proteins) and was normalized to the scramble treated cells (FIG. 8B).

[9] = 3 mg/kg topical three times per week, 10 minutes prior to each UVB exposure, 29 weeks
[10] = XPC^−/− mice, 3 mg/kg topical three times per week for three months

Substance: tat-I-Q-S-R-C-C-T-V-T (RKKRRQRRRIQSRCCTVT; FUSION PEPTIDE) [peptide B, target SH3-NoxA1]
- ROS level [1]: significant decrease
- ROS level [2]: significant reduction

Substance: tat-C-L-R-I-T-R-Q-S-R [peptide C, reference compound]
- tumors with a volume less than 5 mm^3 [3]: 8%

Substance: tat-P-P-T-V-P-T-R-P-S (RKKRRQRRRPPTVPTRPS; FUSION PEPTIDE) [peptide A, target SH3-NoxA1]
- reduction of NADPH oxidase activity in non-tumor bearing skin (NADPH oxidase [4]): 70%
- reduction of NADPH oxidase activity in tumors (NADPH oxidase [4]): 54%
- NADPH oxidase activity (NADPH oxidase [5]): Equally decreased
- decrease in tumor number [3, 9]: 2.3 times
- decrease in tumor size [3, 9]: 2.9 times
- tumors with a volume less than 5 mm^3 [3]: 57%
- steady-state levels of ROS in shNox1-transduced cells (Nox1): no effect
- duration of efficient inhibition of Nox activity in skin [6]: up to 3 days
- XPC deficiency-induced premature aging (XPC deficient mice; XPC deficient mice): blocked
- XPC deficiency-induced metabolic alteration (proteomic approach) (XPC deficient mice; XPC deficient mice, three times per week for three months): eliminated the effects
- expression of OXPHOS complexes I, II and III (XPC deficient mice; [10]): abrogated the decrease
- protein expression of progerin in skin (XPC deficient mice; [10]): blocked the increase
- ROS level [1]: significant decrease
- ROS level [2]: significant reduction
- UVB-induced Nox activation [7]: efficiently blocked

Substance: PPTVPTR (HOMO SAPIENS) [P7, shorter peptide derived from peptide A]
- XPC deficiency-induced premature aging (XPC deficient mice; XPC deficient mice): blocked
- all experiments of Example 8 repeated, compared with peptide A (XPC deficient mice; XPC deficient mice): the same results have been obtained
- inhibition of NADPH oxidase activity (NADPH oxidase [8]): efficiently inhibit

Substance: PPTVPTRPS (HOMO SAPIENS) [peptide A without tat]
- inhibition of NADPH oxidase activity (NADPH oxidase [8]): as efficiently as peptide A

Substance: P8: shorter peptide derived from peptide A, sequence not printed (PPTVPTRP; … PEPTIDIC FRAGMENT)
- inhibition of NADPH oxidase activity (NADPH oxidase [8]): efficiently inhibit
